In PubChem BioAssay (NCI):
Values joined by “and” are separate entries in the source; they are usually repeats but may differ in a detail not shown here. Equal entries are not always repeated.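 How tested: cells in 96-well plates exposed to compound for 48 hours at five concentrations. The concentration for 50% growth inhibition is given as GI50. TGI is the concentration that stops growth completely.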

system: OVCAR-5 ovarian; assay: inhibition of tumour cell growth, NCI panel, 48 h

Row | Structure (SMILES) | TGI | GI50 [µM]
1 | N#CSc1nc[nH]c1C(N)=O | > 100 µM | 
2 | CN(C)C(=O)NCCN1CCCCCc2ccccc21 | > 100 µM | 
3 | C=CCN1C[C@H](C)N([C@H](c2ccc(C(=O)N(CC)CCO)cc2)c2cccc(OC)c2)C[C@H]1C | > 100 µM | 
4 | C=C1C(=O)O[C@H]2[C@H]1[C@@H](OC(=O)C=C(C)C)CC1=C[C@@H](C[C@@]3(C)O[C@@H]23)OC1=O | 32.1 µM and 49 µM | 30
5 | O=c1[nH]cc(COCC(F)(F)C(F)(F)C(F)(F)C(F)F)c(=O)[nH]1 | > 100 µM | 
6 | CC(=O)c1csc2c1C(=O)c1scc(C(C)=O)c1C2=O | 3.45 µM | 
7 | O=C1NC(=O)C(CCO)(c2ccccc2)C(=O)N1 | > 100 µM | 
8 | Cc1ccc(C2CC(c3ccco3)=NN2c2ccccc2)o1 (stereo not given) | > 100 µM | 
9 | COC(=O)C(=C/c1ccc(OC)cc1)/C(C(=O)O)=C(/C)c1ccccc1 | > 100 µM | 
10 | COC(=O)c1ccc(/C=C2\N=C(C)OC2=O)cc1 | > 100 µM | 
11 | Nc1ccc(C(=O)NN2C(=O)C(Cl)C2c2ccccc2Cl)cc1 (stereo not given) | 28.4 µM | 
12 | CCOC(=O)c1csc(NC(=O)C(C)N2CCCCC2)n1 (stereo not given) | > 100 µM | 
13 | CCN1c2nc3ccccc3nc2N(CC)c2nc3ccccc3nc21 | > 100 µM | 
14 | CCN1CCN(c2ccc(Nc3ccnc4ccc5nn(C)nc5c34)cc2)CC1 | 32.5 µM | 
15 | Cc1cccc2c1Oc1cc(Cl)ccc1C2NC(=O)CCN1CCOCC1 (stereo not given) | > 100 µM | 
16 | C[C@H]1[C@H](C)CC[C@]2(C)CC[C@]3(C)C(=C[C@@H](O)[C@@H]4[C@@]5(C)[C@H](O)[C@@H](O)[C@H](O)C(C)(C)[C@@H]5CC[C@]43C)[C@H]12 | > 100 µM | 
17 | c1cc(-c2ncc(-c3ccc4c(c3)CCCO4)o2)ccn1 | > 100 µM | 
18 | COc1ccnc2c1C(=O)c1nc3ccccc3c3ccnc-2c13 | 2.73 µM | 

Row | Structure (SMILES) | TGI | GI50 [µM]
19 | CCN(CC)CCn1nc(N)c2nc3cc(Cl)ccc3nc21 | > 100 µM | 
20 | O=C(O)c1ccc(NNc2cc(=O)[nH]c(=O)[nH]2)cc1 | > 100 µM | 
21 | COc1ccc2c(c1)CCc1c-2[nH]c2ccc(OC)cc12 | > 100 µM | 
22 | COC(=O)C1OC(Oc2cc(O)c3c(=O)cc(-c4ccc(O)cc4)oc3c2)C(O)C(O)C1O (stereo not given) | > 100 µM | 
23 | C=CCn1c(=O)n(CC=C)c(=O)n(CC=C)c1=O | > 100 µM | 
24 | COc1cc(/C=C2\C[C@H]3[C@@H]4CC=C5C[C@@H](O)CC[C@]5(C)[C@H]4CC[C@]3(C)C2=O)cc(OC)c1OC | > 100 µM | 
25 | CC1=C(Br)C(Br)=C(C)S1=O | 37.4 µM | 
26 | CC1(C)c2ccccc2C(=O)C12CCC(=O)CC2 | > 100 µM | 
27 | Cc1cc(C)cc(C(=N)c2ccccc2Cc2cccc3ccccc23)c1 | 53.5 µM | 
28 | O=C1C(Cl)C(c2ccccc2)N1n1cnc2ccccc2c1=O (stereo not given) | > 100 µM | 
29 | CN(C)C(=O)OCOC(=O)N(C)C | > 100 µM | 
30 | CC(=O)OCC1OC(Nc2ncc(-c3ccc(C)cc3)s2)C(OC(C)=O)C(OC(C)=O)C1OC(C)=O (stereo not given) | > 100 µM | 
31 | CNC(=S)N/N=C(C)\C(=N/NC(=S)NC)c1ccccc1 | > 100 µM | 
32 | CCCCN1C=CN2c3nc4cc(C)c(C)cc4n3C(C(=O)OC)=C(C(=O)OC)C12 (stereo not given) | > 100 µM | 
33 | C#CCn1ncc2c(SCc3ccccc3)ncnc21 | > 100 µM | 
34 | CCCCCC(C[N+]1(C)CCOCC1)C(=O)/C=C/c1ccccc1 (stereo not given) | 37.3 µM | 
35 | CC1=CC(C2/C(=N/O)C=C(C)CC2(C)C)C(O)C(C)(C)C1 (stereo not given) | 34.8 µM | 
36 | C/C(=C1/CCCC2(N=NCC2c2ccccc2)C1=O)c1ccccc1 (stereo not given) | > 100 µM | 

system: SF-539 CNS; assay: inhibition of tumour cell growth, NCI panel, 48 h

Row | Structure (SMILES) | TGI [µM]
37 | COc1ccc2c3c1O[C@H]1C(O)CCC4(O)[C@@H](C2)NCC[C@]314 (stereo not given in full) | > 100
38 | N#CSc1nc[nH]c1C(N)=O | > 100
39 | CN(C)C(=O)NCCN1CCCCCc2ccccc21 | > 100
40 | Cc1ccc2c(c1CCCC(C)(C)O)C(=O)C(=O)C(C(C)C)=C2O | > 100
41 | C=CCN1C[C@H](C)N([C@H](c2ccc(C(=O)N(CC)CCO)cc2)c2cccc(OC)c2)C[C@H]1C | > 100
42 | C=C1C(=O)O[C@H]2[C@H]1[C@@H](OC(=O)C=C(C)C)CC1=C[C@@H](C[C@@]3(C)O[C@@H]23)OC1=O | 5.29
43 | CC(=O)c1csc2c1C(=O)c1scc(C(C)=O)c1C2=O | 3.28
44 | O=C1NC(=O)C(CCO)(c2ccccc2)C(=O)N1 | > 100
45 | Cc1ccc(C2CC(c3ccco3)=NN2c2ccccc2)o1 (stereo not given) | > 100
46 | COC(=O)C(=C/c1ccc(OC)cc1)/C(C(=O)O)=C(/C)c1ccccc1 | > 100
47 | COC(=O)c1ccc(/C=C2\N=C(C)OC2=O)cc1 | > 100
48 | Nc1ccc(C(=O)NN2C(=O)C(Cl)C2c2ccccc2Cl)cc1 (stereo not given) | 20.2
49 | CCOC(=O)c1csc(NC(=O)C(C)N2CCCCC2)n1 (stereo not given) | > 100
50 | CCN1c2nc3ccccc3nc2N(CC)c2nc3ccccc3nc21 | 94
51 | CCN1CCN(c2ccc(Nc3ccnc4ccc5nn(C)nc5c34)cc2)CC1 | 27.2
52 | Cc1cccc2c1Oc1cc(Cl)ccc1C2NC(=O)CCN1CCOCC1 (stereo not given) | > 100
53 | C[C@H]1[C@H](C)CC[C@]2(C)CC[C@]3(C)C(=C[C@@H](O)[C@@H]4[C@@]5(C)[C@H](O)[C@@H](O)[C@H](O)C(C)(C)[C@@H]5CC[C@]43C)[C@H]12 | > 100
54 | c1cc(-c2ncc(-c3ccc4c(c3)CCCO4)o2)ccn1 | 45.2
